Source: the NIST ThermoML archive (doi:10.1021/je0501843)
Where “and” joins values, the source holds several entries; their conditions need not be identical. Equal entries are not always repeated.

Experiment: molar heat capacity at constant volume
Details: Fluid (supercritical or subcritical phases), Vacuum adiabatic calorimetry

FC(F)C(F)(F)F [pentafluoroethane]
Details	molar heat capacity at constant volume
350 K, Mass density=585.7 kg/m3	121.87 J/K/mol and 115.26 J/K/mol
350 K, Mass density=688.6 kg/m3	121.82 J/K/mol
350 K, Mass density=774 kg/m3	115.87 J/K/mol
350 K, Mass density=882.7 kg/m3	111.2 J/K/mol
350 K, Mass density=975 kg/m3	106.81 J/K/mol and 108.22 J/K/mol
350 K, Mass density=1076.5 kg/m3	105.51 J/K/mol and 105.75 J/K/mol
351 K, Mass density=403.4 kg/m3	114.03 J/K/mol
351 K, Mass density=503 kg/m3	115.42 J/K/mol
351 K, Mass density=585.7 kg/m3	123.23 J/K/mol and 114 J/K/mol
351 K, Mass density=688.6 kg/m3	119.91 J/K/mol
351 K, Mass density=773.9 kg/m3	114.06 J/K/mol
351 K, Mass density=882.7 kg/m3	110.25 J/K/mol
351 K, Mass density=974.9 kg/m3	106.01 J/K/mol and 107.36 J/K/mol
351 K, Mass density=1076.4 kg/m3	105.26 J/K/mol and 105.57 J/K/mol
352 K, Mass density=403.5 kg/m3	110.23 J/K/mol
352 K, Mass density=503 kg/m3	114.08 J/K/mol
352 K, Mass density=585.7 kg/m3	123.57 J/K/mol and 113.02 J/K/mol
352 K, Mass density=688.6 kg/m3	117.02 J/K/mol
352 K, Mass density=773.9 kg/m3	113.16 J/K/mol
352 K, Mass density=882.6 kg/m3	108.96 J/K/mol
352 K, Mass density=974.8 kg/m3	106.96 J/K/mol and 107.86 J/K/mol
352 K, Mass density=1076.3 kg/m3	105.75 J/K/mol and 105.23 J/K/mol
353 K, Mass density=403.5 kg/m3	109.29 J/K/mol
353 K, Mass density=503 kg/m3	114.32 J/K/mol
353 K, Mass density=585.7 kg/m3	120.99 J/K/mol and 113.07 J/K/mol
353 K, Mass density=688.5 kg/m3	116.8 J/K/mol
353 K, Mass density=773.8 kg/m3	113.56 J/K/mol
353 K, Mass density=882.5 kg/m3	110.9 J/K/mol
353 K, Mass density=974.7 kg/m3	107.31 J/K/mol and 108.33 J/K/mol
353 K, Mass density=1076.2 kg/m3	106.21 J/K/mol and 105.67 J/K/mol
354 K, Mass density=403.6 kg/m3	113.22 J/K/mol
354 K, Mass density=503 kg/m3	115.36 J/K/mol
354 K, Mass density=585.7 kg/m3	119.21 J/K/mol and 111.24 J/K/mol
354 K, Mass density=688.5 kg/m3	117.18 J/K/mol
354 K, Mass density=773.8 kg/m3	113.7 J/K/mol
354 K, Mass density=882.5 kg/m3	112.32 J/K/mol
354 K, Mass density=974.6 kg/m3	107.07 J/K/mol and 107.84 J/K/mol
354 K, Mass density=1076.1 kg/m3	105.5 J/K/mol and 106.64 J/K/mol
355 K, Mass density=403.6 kg/m3	113.06 J/K/mol
355 K, Mass density=503 kg/m3	114.26 J/K/mol
355 K, Mass density=585.7 kg/m3	121.17 J/K/mol and 110.25 J/K/mol
355 K, Mass density=688.5 kg/m3	116.52 J/K/mol
355 K, Mass density=773.7 kg/m3	113.14 J/K/mol
355 K, Mass density=882.4 kg/m3	110.04 J/K/mol
355 K, Mass density=974.6 kg/m3	106.63 J/K/mol and 107.29 J/K/mol
355 K, Mass density=1076 kg/m3	104.47 J/K/mol and 105.31 J/K/mol
356 K, Mass density=403.6 kg/m3	111.13 J/K/mol
356 K, Mass density=503 kg/m3	114 J/K/mol
356 K, Mass density=585.7 kg/m3	121.39 J/K/mol and 110.52 J/K/mol
356 K, Mass density=688.4 kg/m3	115.44 J/K/mol
356 K, Mass density=773.7 kg/m3	112.56 J/K/mol
356 K, Mass density=882.4 kg/m3	109.83 J/K/mol
356 K, Mass density=974.5 kg/m3	106.76 J/K/mol and 106.98 J/K/mol
356 K, Mass density=1075.9 kg/m3	105.59 J/K/mol and 105.04 J/K/mol
357 K, Mass density=403.6 kg/m3	111.14 J/K/mol
357 K, Mass density=503 kg/m3	114.3 J/K/mol
357 K, Mass density=585.6 kg/m3	111.96 J/K/mol
357 K, Mass density=585.7 kg/m3	119.54 J/K/mol
357 K, Mass density=688.4 kg/m3	115.72 J/K/mol
357 K, Mass density=773.7 kg/m3	114.08 J/K/mol
357 K, Mass density=882.3 kg/m3	111.13 J/K/mol
357 K, Mass density=974.4 kg/m3	107.52 J/K/mol and 108.27 J/K/mol
357 K, Mass density=1075.8 kg/m3	106.52 J/K/mol and 106.05 J/K/mol
358 K, Mass density=403.6 kg/m3	111.56 J/K/mol
358 K, Mass density=503 kg/m3	112.47 J/K/mol
358 K, Mass density=585.6 kg/m3	118.73 J/K/mol and 110.52 J/K/mol
358 K, Mass density=688.4 kg/m3	115.42 J/K/mol
358 K, Mass density=773.6 kg/m3	113.91 J/K/mol
358 K, Mass density=882.2 kg/m3	110.62 J/K/mol
358 K, Mass density=974.3 kg/m3	107.37 J/K/mol and 108.93 J/K/mol
358 K, Mass density=1075.7 kg/m3	105.71 J/K/mol and 106.8 J/K/mol
359 K, Mass density=403.6 kg/m3	112.17 J/K/mol
359 K, Mass density=503 kg/m3	112.71 J/K/mol
359 K, Mass density=585.6 kg/m3	120.73 J/K/mol and 110.01 J/K/mol
359 K, Mass density=688.3 kg/m3	114.6 J/K/mol
359 K, Mass density=773.6 kg/m3	112.66 J/K/mol
359 K, Mass density=882.2 kg/m3	109.41 J/K/mol
359 K, Mass density=974.3 kg/m3	106.84 J/K/mol and 107.68 J/K/mol
359 K, Mass density=1075.6 kg/m3	105.11 J/K/mol and 106.04 J/K/mol
360 K, Mass density=403.6 kg/m3	111.06 J/K/mol
360 K, Mass density=503 kg/m3	113.85 J/K/mol
360 K, Mass density=585.6 kg/m3	119.64 J/K/mol and 111.46 J/K/mol
360 K, Mass density=688.3 kg/m3	115.44 J/K/mol
360 K, Mass density=773.5 kg/m3	113.01 J/K/mol
360 K, Mass density=882.1 kg/m3	109.1 J/K/mol
360 K, Mass density=974.2 kg/m3	106.66 J/K/mol and 107.71 J/K/mol
360 K, Mass density=1075.5 kg/m3	106.19 J/K/mol and 105.87 J/K/mol
361 K, Mass density=403.6 kg/m3	110.42 J/K/mol
361 K, Mass density=503 kg/m3	112.26 J/K/mol
361 K, Mass density=585.6 kg/m3	116.41 J/K/mol and 111.57 J/K/mol
361 K, Mass density=688.3 kg/m3	115.6 J/K/mol
361 K, Mass density=773.5 kg/m3	113.86 J/K/mol
361 K, Mass density=882.1 kg/m3	110.89 J/K/mol
361 K, Mass density=974.1 kg/m3	107.11 J/K/mol and 108.37 J/K/mol
361 K, Mass density=1075.4 kg/m3	106.59 J/K/mol
362 K, Mass density=403.6 kg/m3	109.78 J/K/mol
362 K, Mass density=503 kg/m3	111.4 J/K/mol
362 K, Mass density=585.6 kg/m3	117.98 J/K/mol and 110.73 J/K/mol
362 K, Mass density=688.2 kg/m3	115.95 J/K/mol
362 K, Mass density=773.4 kg/m3	112.71 J/K/mol
362 K, Mass density=882 kg/m3	110.8 J/K/mol
362 K, Mass density=974 kg/m3	107.3 J/K/mol and 108.22 J/K/mol
362 K, Mass density=1075.3 kg/m3	106.09 J/K/mol
363 K, Mass density=403.6 kg/m3	109.94 J/K/mol
363 K, Mass density=503 kg/m3	114.16 J/K/mol
363 K, Mass density=585.5 kg/m3	120.74 J/K/mol and 110.36 J/K/mol
363 K, Mass density=688.2 kg/m3	116.44 J/K/mol
363 K, Mass density=773.4 kg/m3	110.53 J/K/mol
363 K, Mass density=881.9 kg/m3	110.61 J/K/mol
363 K, Mass density=974 kg/m3	106.41 J/K/mol and 108.02 J/K/mol
363 K, Mass density=1075.2 kg/m3	106.37 J/K/mol
364 K, Mass density=403.6 kg/m3	111.1 J/K/mol
364 K, Mass density=503 kg/m3	113.42 J/K/mol
364 K, Mass density=585.5 kg/m3	119.4 J/K/mol and 109.88 J/K/mol
364 K, Mass density=688.2 kg/m3	114.69 J/K/mol
364 K, Mass density=773.3 kg/m3	110.71 J/K/mol
364 K, Mass density=881.9 kg/m3	110.79 J/K/mol
364 K, Mass density=973.9 kg/m3	106.7 J/K/mol and 108.1 J/K/mol
364 K, Mass density=1075.1 kg/m3	106.31 J/K/mol
365 K, Mass density=403.6 kg/m3	108.67 J/K/mol
365 K, Mass density=503 kg/m3	111.49 J/K/mol
365 K, Mass density=585.5 kg/m3	117.96 J/K/mol and 110.02 J/K/mol
365 K, Mass density=688.1 kg/m3	115.26 J/K/mol
